PMC9321647, “Curcumin-Based β-Diketo Ligands for Ga^3+: Thermodynamic Investigation of Potential Metal-Based Drugs” (Pharmaceuticals, 2022)
Read-outs that look alike come from different tables or passages of the source.

Legend:
[1] = Spectrophotometric pH titrations of ligands (protonation constants, pKa); format: physicochemical; conditions: 298 K; for logβ011 overall protonation constant / logβ012 overall protonation constant / logβ013 overall protonation constant: HypSpec, spectrophotometric data; for pKa: aqueous solution (methanol stock diluted in water)
Protocol: (§1) UV–visible spectra were recorded with a JASCO V-570 UV/Vis/NIR spectrophotometer at 298 K in the 250–600 nm spectral range employing quartz cells (1 cm optical path). To perform spectrophotometric titrations, ligands (denoted generally as L in the following) were dissolved in methanol to give a mother solution (2.50 mM), that was then diluted in water in order to obtain a final concentration of 50 μM. The metal/ligand (M:L) solutions were obtained by adding appropriate quantities of Ga(NO3)3 as methanol solutions (5–10 mM) in order to obtain the metal-to-ligand 1:1 molar ratio (L = 50 μM and V = 25 mL). For both L and M:L systems, pH (initial value of about 5) was varied by adding small amounts (<1 μL) of concentrated NaOH (4 M) up to ca. pH 11, thus to consider volume variations negligible. To evaluate the complexation ratio, constant additions of the M solution (10 µL each time, M = 10^–2 M) were dropped into the ligand solution (V = 25 mL, L = 50 μM) using a micropipette in order to reach different M:L molar ratios. A constant ionic strength (NaNO3, 0.1 M) was maintained in all experiments. Spectrophotometric investigations of iron(III) systems were performed in the same conditions; the Fe^3+ solution was freshly prepared in methanol starting from Fe(NO3)3·9H2O. The overall protonation constants (logβqr) and the overall stability constants of metal complexes (logβpqr) were evaluated from spectrophotometric data. The stability constants (βpqr), defined by the following equations:(3) pM^m++qL^l^−+rH^+⇌MpLqHr(mp−lq+r) (4) βpqr=[MpLqHr(mp−lq+r)]/[M^m+]^p·[L^l−]^q·[H^+]^r where L is the ligand in the completely dissociated form and H is proton, were refined using least-squares calculation in HypSpec. The results of least-squares calculation include the standard deviations and correlation coefficients of the refined parameters. The quantities are obtained by performing error propagation calculation from the experimental errors onto the parameters. The stability constant refinement furnishes least-squares estimates of the standard deviation, σ, of the stability constant β. The error on logβ is calculated as follows: σ(logβ) = [log(β + σ) − log(β − σ)]/2.

[2] = Spectrophotometric pH-metric titrations of Ga^3+:ligand systems (stability constants, pGa, speciation); format: physicochemical; conditions: for log β 112 overall stability constant (Ga^3+) / log β 124 overall stability constant (Ga^3+) / logK11 apparent formation constant (Ga^3+, M:L 1:1) / logK12 apparent formation constant (Ga^3+, M:L 1:2): 298 K; for log β 112 overall stability constant (Ga^3+) / log β 124 overall stability constant (Ga^3+): HypSpec; for logK11 apparent formation constant (Ga^3+, M:L 1:1) / logK12 apparent formation constant (Ga^3+, M:L 1:2): estimated from logβMLH; for Prevailing Species (pH 5.5) / Prevailing Species (pH 7.4): Ga^3+ complex species; for Prevailing Species (pH 7.4): ** possible formation of gallium hydroxide species; for pGa (−log[Ga^3+]free): [Ga^3+]total = 1 μM, [L]total = 10 μM, pH 7.4, 25 °C
Protocol: as §1
(§2) Hydroxide species, such as [Ga(OH)2]^+, were taken into account for calculations. The hydrolysis constants for Ga^3+ are as follows: logβ1,1,0 = −3.93; logβ2,1,0 = −7.73; logβ3,1,0 = −12.38; logβ4,1,0 = −15.96; logβ32,13,0 = −66.3; logβ3,1,0(s) = −3.54 [43]; pGa is defined as (−log[Ga^3+]free) and is calculated at specific conditions (Ga^3+total = 1 μM, Ltotal = 10 μM, pH 7.4, 25 °C). For the calculation of the iron(III) overall stability constants, the presence of [Fe(OH)]^2+, [Fe(OH)2]^+ and [Fe(OH)3] species was taken into account.

[3] = Iron-chelating ability by spectrophotometric analysis / transmetalation; format: physicochemical; conditions: for logβ124(Fe): Fe^3+, same conditions as Ga^3+ systems
Text: Compounds 4 and 5 were selected to evaluate iron-chelating ability by spectrophotometric analysis in the same conditions as the ones applied to carry out investigations on Ga^3+ systems. The calculated logβ124(Fe) values were 56.2 (2) and 58.6 (4) for 4 and 5, respectively. From the difference between the logβ values of the complexes with two metal ions, it is possible to calculate the apparent stability constant K (logK = logβ124(Fe) − logβ124(Ga)) associated with the transmetalation reaction (Equation (1)). (1) Fe^3++[Ga(H2L)2]^+ ⇆ […]+[Fe(H2L)2]^+
UV–visible spectra were recorded with a JASCO V-570 UV/Vis/NIR spectrophotometer at 298 K in the 250–600 nm spectral range employing quartz cells (1 cm optical path). To perform spectrophotometric titrations, ligands (denoted generally as L in the following) were dissolved in methanol to give a mother solution (2.50 mM), that was then diluted in water in order to obtain a final concentration of 50 μM. The metal/ligand (M:L) solutions were obtained by adding appropriate quantities of Ga(NO3)3 as methanol solutions (5–10 mM) in order to obtain the metal-to-ligand 1:1 molar ratio (L = 50 μM and V = 25 mL). For both L and M:L systems, pH (initial value of about 5) was varied by adding small amounts (<1 μL) of concentrated NaOH (4 M) up to ca. pH 11, thus to consider volume variations negligible. […] The overall protonation constants (logβqr) and the overall stability constants of metal complexes (logβpqr) were evaluated from spectrophotometric data. […] The quantities are obtained by performing error propagation calculation from the experimental errors onto the parameters. […] The error on logβ is calculated as follows: σ(logβ) = [log(β + σ) − log(β − σ)]/2.
as §2, with “For the calculation of the iron(III) overall stability constants, the presence of [Fe(OH)]^2+, [Fe(OH)2]^+ and [Fe(OH)3] species was taken into account.” left out

[4] = DPPH radical-scavenging assay; conditions: free ligand
Protocol: The antioxidant activity of compounds 4 and 5 and their Ga^3+ metal complexes at the M:L 1:1 and 1:2 molar ratio was evaluated in terms of hydrogen-donating or radical scavenging ability using a stable DPPH radical, 1,1-diphenyl-2-picrylhydrazyl radical, following the procedure previously reported. The percentage of inhibition (%In) of the DPPH radical by each sample was calculated according to the following formula: %In=A0−At/A0×100 where A0 represents the absorbance of the control (DPPH radical) at time 0, while At refers to the absorbance of the mixture antioxidant/DPPH at time t (120 min). Values of absorbance were corrected considering volume dilution. All the determinations were performed in duplicate.

[5] = calculated from logβ values, * = keto–enol moiety dissociation

2-((4Z,6E)-5-hydroxy-7-(4-hydroxyphenyl)-4-((E)-3-(4-hydroxy-3-ethoxyphenyl) acryloyl) hepta-4,6-dien-1-yl)isoindoline-1,3-dione [Compound 5]
logβ011 overall protonation constant [1]: 10.44 (3) | logβ012 overall protonation constant [1]: 20.45 (2) | logβ013 overall protonation constant [1]: 29.58 (4) | pKa1 [1, 5]: 9.13 (6) | pKa2 [1, 5]: 10.01 (5) | pKa3 [1, 5]: 10.44 (3) | log β 112 overall stability constant (Ga^3+) [2]: 28.54 (3) | log β 124 overall stability constant (Ga^3+) [2]: 57.00 (1) | logK11 apparent formation constant (Ga^3+, M:L 1:1) [2]: 8.09 | logK12 apparent formation constant (Ga^3+, M:L 1:2) [2]: 16.1 | Prevailing Species (pH 5.5) [2]: [Ga(H2L)2]^+ | Prevailing Species (pH 7.4) [2]: [Ga(H2L)2]^+ | pGa (−log[Ga^3+]free) [2]: 23.2 | logβ124(Fe) [3]: 58.6 (4) | IC50 [4]: 32 µM

COc1cc(/C=C/C(=O)C(CCCN2C(=O)c3ccccc3C2=O)C(=O)/C=C/c2ccc(O)c(OC)c2)ccc1O [Compound 4]
logβ011 overall protonation constant [1]: 10.78 (4) | logβ012 overall protonation constant [1]: 20.44 (6) | logβ013 overall protonation constant [1]: 29.44 (6) | pKa ([1]; calculated from logβ values, * = keto–enol moiety dissociation, read-out: pKa1): 9 | pKa ([1]; calculated from logβ values, * = keto–enol moiety dissociation, read-out: pKa2): 9.66 | pKa ([1]; calculated from logβ values, * = keto–enol moiety dissociation, read-out: pKa3): 10.8 | log β 112 overall stability constant (Ga^3+) [2]: 28.48 (5) | log β 124 overall stability constant (Ga^3+) [2]: 55.33 (5) | logK11 apparent formation constant (Ga^3+, M:L 1:1) [2]: 8.04 | logK12 apparent formation constant (Ga^3+, M:L 1:2) [2]: 14.45 | Prevailing Species (pH 5.5) [2]: [Ga(H2L)2]^+ | Prevailing Species (pH 7.4) [2]: [Ga(H2L)2]^+ | pGa (−log[Ga^3+]free) [2]: 21.5 | LogK apparent stability constant of transmetalation (logβ124(Fe) − logβ124(Ga)) ([3]; Fe^3+ + [Ga(H2L)2]^+ exchange): 0.9(3) | logβ124(Fe) [3]: 56.2 (2) | IC50 [4]: 20 µM
